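1) Cells in 96-well plates. 2) Compound, 48 h, 5 concentrations. 3) Linear interpolation between surrounding doses. 4) Unreached endpoint = highest concentration. GI50 = concentration required for 50% inhibition of growth. TGI marks complete inhibition of growth.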
Key:
Assay in all cases: DTP human tumour cell line panel, 48 h
[1] = test system: HL-60(TB) leukemia
[2] = test system: SK-MEL-5 melanoma
[3] = test system: OVCAR-8 ovarian
[4] = test system: NCI-H522 lung
[5] = test system: NCI-H23 lung
[6] = test system: K-562 leukemia
[7] = test system: U251 CNS
[8] = test system: A549 NSCLC
[9] = test system: UO-31 renal
[10] = test system: SNB-78 CNS
[11] = test system: SNB-75 CNS
[12] = test system: LXFL 529 NSCLC
[13] = test system: SN12C renal
[14] = test system: SF-539 CNS
[15] = test system: MALME-3M melanoma
[16] = test system: SR leukemia
[17] = test system: UACC-257 melanoma
[18] = test system: KM12 colon
[19] = test system: NCI-H460 lung
[20] = test system: KM20L2 colon
[21] = test system: HCC-2998 colon
[22] = test system: HCT-116 colon
[23] = test system: SK-MEL-28 melanoma
[24] = test system: DMS 273 small cell lung
[25] = test system: SK-OV-3 ovarian
[26] = test system: OVCAR-4 ovarian
[27] = test system: SF-295 CNS
[28] = test system: LOX IMVI melanoma
[29] = test system: OVCAR-3 ovarian
[30] = test system: OVCAR-5 ovarian
[31] = test system: RPMI-8226 leukemia
[32] = test system: UACC-62 melanoma
[33] = test system: SF-268 CNS
[34] = test system: SNB-19 CNS
[35] = test system: IGROV1 ovarian
[36] = test system: EKVX NSCLC
[37] = test system: HOP-18 NSCLC
[38] = test system: ACHN renal
[39] = test system: HT29 colon
[40] = test system: M19-MEL melanoma
[41] = test system: M14 melanoma
[42] = test system: MOLT-4 leukemia
[43] = test system: HOP-62 NSCLC
[44] = test system: SW-620 colon
[45] = test system: HOP-92 NSCLC
[46] = test system: DMS 114 small cell lung
[47] = test system: 786-0 renal
[48] = test system: RXF 393 renal
[49] = test system: COLO 205 colon

SMILES: N=C1C(=N)c2ccccc2-c2ccccc21.N=C1C(=N)c2ccccc2-c2ccccc21.N=C1C(=N)c2ccccc2-c2ccccc21.[Cl-].[Ru+2]
- TGI [1]: 3.76 µM
- GI50 [2]: 1.91 µM
- TGI [2]: 3.71 µM
- TGI [3]: 3.14 µM
- TGI [4]: 2.84 µM
- TGI [5]: 4.93 µM
- TGI [6]: 4.68 µM
- TGI [7]: 3.08 µM
- TGI [8]: > 27.9 µM
- TGI [9]: 4.71 µM
- GI50 [10]: 1.65 µM
- TGI [10]: 3.88 µM
- TGI [11]: 4.25 µM
- GI50 [12]: 1.61 µM
- TGI [12]: 3.08 µM
- TGI [13]: 2.94 µM
- TGI [14]: 3.27 µM
- GI50 [15]: 1.79 µM
- TGI [15]: 3.29 µM
- TGI [16]: 5.57 µM
- TGI [17]: 3.53 µM
- TGI [18]: > 68 µM
- TGI [19]: 6.29 µM
- GI50 [20]: 5.37 µM
- TGI [20]: 13.2 µM
- TGI [21]: > 31.6 µM
- TGI [22]: 3.2 µM
- TGI [23]: 3.79 µM
- GI50 [24]: 2.15 µM
- TGI [24]: 5.45 µM
- TGI [25]: 6.91 µM
- TGI [26]: 2.85 µM
- TGI [27]: 3.23 µM
- TGI [28]: 7.94 µM
- TGI [29]: 3.08 µM
- TGI [30]: 18.6 µM
- TGI [31]: 5.4 µM
- TGI [32]: 3.5 µM
- TGI [33]: 3.28 µM
- TGI [34]: 6.35 µM
- TGI [35]: 5.01 µM
- TGI [36]: 3.41 µM
- GI50 [37]: 3.14 µM
- TGI [37]: 7.76 µM
- TGI [38]: 3.29 µM
- TGI [39]: > 31.6 µM
- GI50 [40]: 1.46 µM
- TGI [40]: 2.86 µM
- TGI [41]: 3.72 µM
- TGI [42]: 5.46 µM
- TGI [43]: 8.97 µM
- TGI [44]: 3.74 µM
- GI50 [45]: 1.6 µM
- TGI [45]: 3.09 µM
- GI50 [46]: 1.63 µM
- TGI [46]: 3.07 µM
- TGI [47]: 28.5 µM
- TGI [48]: 5.58 µM
- TGI [49]: 6.87 µM

Source: PubChem BioAssay (NCI)
